The text below walks through data of patent US20100130598A1, “METHODS FOR INDUCING PROGRAMMED CELL DEATH” (Novogen Research Pty Ltd., priority 2008, published 2010).

What all share (type): cell-based, human
Assay [1] deals with Caspase 2, 3 and 9 in HPAC cells. In words: In situ caspase activity by flow cytometry, HPAC. The method, then:
(§1) Cells. Human pancreatic cell lines HPAC, MIAPaCa-2 and PANC-1 were obtained from the ATCC. (Manassas, Va.). The cells were maintained in DMEM media with Gln and high glucose (Mediatech, Manassas, Va.) with 10% fetal bovine serum (FBS, HyClone, Logan, Utah) and pencillin/streptomycin.
[…] The cells were incubated with caspase substrates for 1 h at 37° C., 5% CO2, then probed with Annexin-V-Cy5 and sytox blue. Caspase +ve cells were gated as shown in the histograms and these cells are indicated on the Annexin-V-Cy5/sytox blue spectra as blue cells. In situ caspase activity was assayed using fluorescent substrates. For Caspase 2, FITC-VDVAD-fmk (Biovision K182-100), for Caspase 3, FITC-DEVD-fmk (K183-100) and for Caspase 9, FITC-LEHD-fmk (K199-100) was used. These substrates bind irreversibly to their respective activated caspases, and caspase activation was quantitated by flow cytometry. After 1 hr incubation at 37° C. in 5% CO2, the cells were washed with DPBS containing 5% FBS and resuspended in Annexin-V binding buffer containing Annexin-V-Cy5 (Biovision K103-3) and sytox blue (Invitrogen), a dye that binds necrotic cells. Caspase activation, apoptosis and necrosis were measured simultaneously using a violet, blue and red laser in a BD LSRII flow cytometer.
(In flow cytometry, cells or beads pass a laser one at a time.)

The test system of another assay is HPAC cells. The assay can be described thus: Western blot analysis of apoptosis regulatory proteins, p21 and p53, HPAC. The settings on record: 10 μM.
Source text: as §1
Antibodies. Antibodies utilised in this study specific to p53 and, p21 were obtained from (Calbiochem, EMD, San Diego, Calif.), Caspase 9, XIAP, COX IV, Bcl2 and Akt (Cell Signaling Technology, Danvers, Mass.), Caspase 2, Cytochrome c and Bid (BD Pharmingen, San Diego, Calif.). GAPDH (RDI, Concord, Mass.) or β-actin (Sigma, St. Louis, Mo.) was used as a housekeeping gene to standardize the protein loading on the gels and blots.
Western blot analysis. Cells were seeded on 100 mm tissue culture plates and grown overnight to ˜90% confluence. Cells were then treated with the drug combinations for indicated time points. After the final treatment step, the cells were lysed with 500 μL of a lysis buffer containing 1% Nonidet P-40, 0.1% SDS, 0.5% deoxycholate, 150 mM NaCl, 50 mM Tris-HCl pH7.5, 1 mM EDTA, 1 mM PMSF and protease inhibitors (Roche) on ice for 30 minutes. Cell lysates were harvested with a sterile cell scraper and centrifuged at 15,000×g for 15 minutes to remove cell debris. Protein was assayed by the BCA method (Pierce) and 50 μg aliquots were separated on 12%, T, 2.6%C SDS-PAGE gels. Proteins were electrophoretically transferred to PVDF membranes (Immobilon P, Millipore, Billerica, Mass.) by the wet transfer method. These membranes were probed with specific antibodies and with anti-GAPDH which was used as the housekeeping gene to standardize the protein loading. The blots were developed on X-ray films using HRP-conjugated secondary antibodies (Southern Biotech, Birmingham, Ala.) and a chemiluminescent substrate (ECL, Amersham, N.Y.).
(Immunoblotting shows a protein as a band on a membrane.)

In assay [2] the test system is phosphorylated mTOR (p-mTOR). The assay can be described thus: Western blot of EOC whole cell lysates for phospho-mTOR. The settings on record: EOC cells, 10 g/ml (as printed, FIG. 3 legend), 15 mins post-treatment. From the text: (§2) Protein preparation and cellular fractionation. After drug treatment, protein was extracted and measured as previously described (Alvero et al, 2006). For separation of the cytoplasmic and mitochondrial fractions, cell pellets were processed using the ApoAlert™ Cell Fractionation Kit (BD Biosciences, San Jose, Calif.) according to the manufacturer's instructions. For separation of the cytoplasmic and nuclear fractions, pellets were processed using NE-PER Nuclear and Cytoplasmic Extraction (Pierce Biotechnology, Inc., Rockford, Ill.).
(§3) SDS-PAGE and Western blots. Cell lysates (20 μg protein) were denatured in sample buffer (2.5% SDS, 10% glycerol, 5% β-mercapto-ethanol, 0.15 M Tris (pH=6.8) and 0.01% bromophenol blue) and subjected to 12% SDS-PAGE as previously described (Kamsteeg et al, 2003). […]

For another assay, the system named is 8 phospho-proteins. The assay can be described thus: Analysis of phospho-proteins using xMAP technology (Beadlyte 8-plex). The settings on record: EOC cells, 10 μg/ml. An excerpt: Analysis of phoshpo-proteins using xMAP technology. After treatment, cells were lysed and lysates were used to measure the phosphorylation status of 8 proteins using the Beadlyte® 8-plex Multi-Pathway Signaling kit (Millipore, Billerica, Mass.) according to manufacturer's instructions. Data was acquired using the BioPlex System (BioRad, Hercules, Calif.).

The test system of another assay is Beclin-1 / Bcl2. In words: Beclin-1 immunoprecipitation from mitochondrial fraction, probed for Bcl2 and Bak. The settings on record: 10 μg/ml, 1 h. The protocol: SDS-PAGE and Western blots. Cell lysates (20 μg protein) were denatured in sample buffer (2.5% SDS, 10% glycerol, 5% β-mercapto-ethanol, 0.15 M Tris (pH=6.8) and 0.01% bromophenol blue) and subjected to 12% SDS-PAGE as previously described (Kamsteeg et al, 2003). The following antibodies and concentrations were used: mouse anti-XIAP (BD, 1:1,000), rabbit anti-MAP LC3 (1:200), rabbit anti-actin (Sigma, 1:10,000), rabbit anti-phosphorylated Akt (Cell Signaling, 1:1,000), rabbit anti-Akt (Cell Signaling, 1:1000), rabbit anti-phosphorylated mTOR (Cell Signaling, 1:1000), rabbit anti-mTOR (Cell Signaling, 1:1000), rabbit anti-cytochrome c (Clontech Laboratories, Inc, Mountainview, Calif., 1:100), rabbit anti-Omi (R&D Systems, Minneapolis, Minn., 1:5000), rabbit anti-Bid (Cell Signaling, 1:1000), mouse anti-Bax (BD Pharmingen, 1:250), rabbit anti-VDAC (Sigma Aldrich, 1:2000), mouse anti-Bcl2 (BD Pharmingen, 1:500), rabbit anti-AIF (Sigma Aldrich, 1:1000), rabbit anti-EndoG (Sigma Aldrich, 1:1000), mouse anti-topoisomerase I (BD Pharmingen, 1:10,000). Proteins were visualized using enhanced chemiluminescence (Pierce, Rockford Ill.).
Immunoprecipitation. […]

The test system of a further assay is AIF and EndoG. In words: Western blot of nuclear fractions for AIF and EndoG. The settings on record: EOC cells, 10 μg/ml.
Source text: as §2, §3

With `COc1ccc(C2c3ccc(O)cc3OCC2c2ccc(O)cc2)cc1` (centres unmarked) [Compound 10, 3-(4-hydroxyphenyl)-4-(4-methoxyphenyl)chroman-7-ol], in assay [1] (10 μM, after 48 hrs), the “caspase 2 and caspase 9 induction” value is “neither caspase 2 or caspase 9 were induced”; the caspase-3 induction entry is “modestly induced”. For the same compound, the “caspase 9 activation” value in assay [1] (30 μM, data not shown) is reported as “activated”. Also, the “expression of p53” value with HPAC cells (HPAC (wild type p53), by 48 hr) is listed as “elevated”. Besides, in the assay with HPAC cells (HPAC), the Bid cleavage entry was “transitory increase”, the “Caspase 2 cleavage” value was “cleaved to a lesser extent”, the “cleavage of Caspase 3” value is “did not cause significant cleavage” and the “level of XIAP” value is given as “reduced”. In addition, in the assay with HPAC cells (HPAC), the “levels of Bcl2” value was “lowered” and the p21 result is “essentially unchanged”. Further, in the assay with HPAC cells (HPAC, early timepoint (4 hr)), the “total Akt” value is on record as “reduced”. Besides, in the assay on HPAC cells (HPAC, time course 0-48 hrs), the “cleaved caspase 9 (17kd)” value is “initial drop in cleaved caspase 9 (17kd) followed by an increase after 16 hr”.
Regarding `COc1ccc(C2c3ccc(O)c(C)c3OCC2c2ccc(O)cc2)cc1` (centres unmarked) [Compound 1, 3-(4-hydroxyphenyl)-4-(4-methoxyphenyl)-8-methylchroman-7-ol], the p-mTOR level result in assay [2] is “down-regulated”. In the assay with 8 phospho-proteins, the “ERK, pJNK, pSTAT5a/b, and pCREB (xMAP phospho-protein panel)” value is recorded as “Up-regulation”; the “p-S6k (xMAP phospho-protein panel)” value is listed as “down-regulates”; the “pIκB, pSTAT3, and p38 (xMAP phospho-protein panel)” value is on record as “minimal or no effect”. For the same compound, the “Bak in complex with Beclin-1” value with Beclin-1 / Bcl2 is “not observed”. In addition, the “Bcl2 in complex with Beclin-1” value in the assay on Beclin-1 / Bcl2 (vs no treatment control) is “Higher levels”. Further, in the assay on AIF and EndoG, the “level of nuclear AIF” value is “not” and the “level of nuclear EndoG” value was “increase”.
